Test results: US20120122951A1 (priority 2009, published 2012)

Tests used:
[1] = system: Mouse B16 melanoma cell; test: Quantification of melanin (melanin content ratio, absorbance at 475 nm); type: cell-based; details: for effect on reducing melanin content (conclusion): 3.33 ppm up to 2690 ppm
Description: (§1) Mouse B16 melanoma cell was used. The cells were inoculated at 1×10^5 cells/well to a 6-well plate, and cultured with using a commercially available medium (trade name: EAGLE MEM, manufactured by Nissui Pharmaceutical Co., Ltd.) supplemented with 10% fetal bovine serum. The cells were cultured at 37° C., 5% CO2 and under completely saturated water-vapor atmosphere.
(§2) For determining the effect of hydroxyproline on cell growth and melanin content reduction, after culturing the cells for 24 hours, stock solutions of 4-trans-L-hydroxyproline, 4-trans-D-hydroxyproline, 4-cis-L-hydroxyproline or 4-cis-D-hydroxyproline were prepared and added in the same volume to the cells, further cultured for 3 days and used for the experiment. Meanwhile, as a control group, the same volume of water was added.
The medium was removed by suction. After washing three times with the buffer (phosphate buffer solution 50 mM, pH 6.8), the cells were lysed by addition of 1 N NaOH, and the absorbance was measured at 475 nm. By having the obtained value as a relative value of the melanin content, the ratio of melanin content (%) for a group added with the test compound compared to a group not added with the test compound (i.e. only the solvent was added) was calculated. Lower ratio of melanin content means the higher inhibition effect on melanin production.
By using the measured value of melanin content that was obtained according to the measurement method above, percentage ratio of the melanin content was calculated by dividing the melanin content in the cells added with 4-trans-L-hydroxyproline, 4-trans-D-hydroxyproline, 4-cis-L-hydroxyproline, or 4-cis-D-hydroxyproline by the melanin content in the cells for control experiment, and the resulting value was taken as a ratio of melanin content.
(§3) The equal amounts of 4-trans-L-hydroxyproline and 4-cis-D-hydroxyproline were mixed to produce the mixture solution of 4-trans-L-hydroxyproline and 4-cis-D-hydroxyproline, which was then provided for the experiments. Cell culture and quantification and evaluation of number of the cells and melanin were carried out in the same manner as the Examples above.
(§4) By using the mixture solution in which 4-trans-L-hydroxyproline and 4-cis-D-hydroxyproline were mixed at various ratio, test for determining cell growth and melanin content reduction was carried out. Cell culture and quantification and evaluation were carried out in the same manner as the Examples above.

[2] = system: Mouse B16 melanoma cell; test: Quantification of the number of cells (alamarBlue), cell growth / cell toxicity; type: cell-based
Description: as §1, §2
3 days after the addition of a solution of test compound, the medium was removed by suction. Eagle's-MEM containing the solution of 10% alamarBlue (trade name: BIOSOURCE, manufactured by Biosource International) was added and the reaction was allowed to occur at 37° C. Thirty minutes later, the fluorescence was measured with excitation wavelength of 544 nm and measurement wavelength of 590 nm. By having the obtained number as a relative value of the cell number, the ratio of number of cells (i.e. % number of cells) for a group added with the test compound compared to a group not added with the test compound (i.e. only the solvent was added) was calculated. Higher % number of cells indicates lower cell toxicity. When it is less than 80%, it was determined as “toxic.”
as §3, §4

[3] = system: Chinese hamster V79 cells; details: cited from earlier work
[4] = FIG. 2, 100 ppm single compound, duplicate

Row | Compound | effect on reducing melanin content (conclusion) ([1]; FIG. 1) | melanin content ratio ([1]; FIG. 1, 3.33 ppm, 3 days) [%] | melanin content ratio ([1]; FIG. 1, 11.1 ppm, 3 days) [%] | melanin content ratio ([1]; FIG. 1, 33.3 ppm, 3 days) [%] | melanin content ratio ([1]; FIG. 1, 333 ppm, 3 days) [%] | melanin content ratio ([1]; FIG. 1, 2690 ppm, 3 days) [%] | number of cells when the control was represented as 100% ([2]; FIG. 1, 3.33 ppm, 3 days) [%] | number of cells when the control was represented as 100% ([2]; FIG. 1, 11.1 ppm, 3 days) [%] | number of cells when the control was represented as 100% ([2]; FIG. 1, 33.3 ppm, 3 days) [%] | number of cells when the control was represented as 100% ([2]; FIG. 1, 333 ppm, 3 days) [%] | number of cells when the control was represented as 100% ([2]; FIG. 1, 2690 ppm, 3 days) [%] | concentration up to which the number of cells was not significantly different from the control (no effect on survival) ([2]; FIG. 1, 3 days) | number of cells when the control was represented as 100% ([2]; FIG. 2, 33.3 ppm, duplicate) [%] | number of cells when the control was represented as 100% ([2]; FIG. 2, 50 ppm, duplicate) [%] | number of cells when the control was represented as 100% [2, 4] [%] | number of cells when the control was represented as 100% ([2]; FIG. 2, 333 ppm, duplicate) [%] | melanin content ratio ([1]; FIG. 2, 33.3 ppm, duplicate) [%] | melanin content ratio ([1]; FIG. 2, 50 ppm, duplicate) [%] | melanin content ratio [1, 4] [%] | melanin content ratio ([1]; FIG. 2, 333 ppm, duplicate) [%] | further results
1 | O=C(O)[C@H]1C[C@H](O)CN1 (stereo in doubt) [4-trans-D-hydroxyproline] | no effect on reducing melanin content | 97 | 99 | 99 | 101 | 110 | 98 | 100 | 101 | 105 | 109 |  |  |  |  |  |  |  |  |  | 
2 | O=C(O)[C@@H]1C[C@H](O)CN1 (stereo in doubt) [4-cis-L-hydroxyproline] | effect on reducing melanin content in a concentration-dependent manner | 92 | 83 | 30 |  |  | 93 | 92 | 84 |  |  | up to 33.3 ppm | 97 | 93 | 95 | 89 |  |  |  |  | 
3 | O=C(O)[C@H]1C[C@@H](O)CN1 (stereo in doubt) [4-cis-D-hydroxyproline] | effect on reducing melanin content in a concentration-dependent manner | 100 | 98 | 96 | 32 |  | 97 | 98 | 101 | 92 |  | ≤ 333 ppm |  |  |  |  | 90 | 85 | 72 | 32 | inhibition of melanin synthesis / melanin content (conclusion) ([1]; FIG. 2, 4-cis-D starting from 33.3 ppm, mixture with same amount of 4-cis-D): prominently inhibit melanin synthesis in a concentration-dependent manner; melanin content ratio ([1]; FIG. 3, 33.3 ppm, duplicate): 92%; melanin content ratio ([1]; FIG. 3, 50 ppm, duplicate): 84%; melanin content ratio ([1]; FIG. 3, 100 ppm, duplicate): 75%; melanin content ratio ([1]; FIG. 3, 333 ppm, duplicate): 37%; number of cells when the control was represented as 100% ([2]; FIG. 3, 33.3 ppm, duplicate): 93%; number of cells when the control was represented as 100% ([2]; FIG. 3, 50 ppm, duplicate): 92%; number of cells when the control was represented as 100% ([2]; FIG. 3, 100 ppm, duplicate): 91%; number of cells when the control was represented as 100% ([2]; FIG. 3, 333 ppm, duplicate): 88%
4 | O=C(O)[C@@H]1C[C@@H](O)CN1 (stereo in doubt) [4-trans-L-hydroxyproline] | no effect on reducing melanin content | 103 | 108 | 105 | 104 | 107 | 95 | 103 | 99 | 101 | 94 |  | 95 | 100 | 98 | 102 | 103 | 104 | 108 | 112 | melanin content ratio ([1]; FIG. 3, 333 ppm, duplicate): 103%; melanin content ratio ([1]; FIG. 3, 480 ppm, duplicate): 99%; melanin content ratio ([1]; FIG. 3, 666 ppm, duplicate): 107%; melanin content ratio ([1]; FIG. 3, 1332 ppm, duplicate): 102%; number of cells when the control was represented as 100% ([2]; FIG. 3, 333 ppm, duplicate): 100%; number of cells when the control was represented as 100% ([2]; FIG. 3, 480 ppm, duplicate): 96%; number of cells when the control was represented as 100% ([2]; FIG. 3, 666 ppm, duplicate): 102%; number of cells when the control was represented as 100% ([2]; FIG. 3, 1332 ppm, duplicate): 99%
5 | Oc1ccc(O)cc1 [Hydroquinone, hydroquinone] |  |  |  |  |  |  |  |  |  |  |  |  |  |  |  |  |  |  |  |  | mutagenic activity [3]: mutagenic activity
